Laboratory results reported in patent US20100016275A1, “NOVEL COMPOUND 395” (priority 2008, published 2010).
Read-outs that look alike come from different tables or passages of the source.

Legend:
[1] = tested on: human plasma proteins; assay: Measurement of plasma protein binding (PPB) by equilibrium dialysis; type: in vitro ADME; conditions: human plasma; for Human plasma protein binding PPB (% free): equilibrium dialysis, 37° C., pH 7.4
Procedure: (§1) Measurement of Plasma Protein Binding (PPB)
(§2) The extent of binding of a drug to plasma proteins is a crucial factor in determining its in vivo potency and pharmacokinetics. The method used for determining the extent of plasma protein binding involves equilibrium dialysis of the compound between plasma and buffer at 37° C. The concentrations of compound in the plasma and buffer are then determined using high pressure liquid chromatography (HPLC) with mass spectroscopy (MS) detection. The dialysis method involves the use of mixtures of up to 10 compounds simultaneously. It has been shown that at the concentrations used in the assay, there is no significant difference in the results when compounds are run singly or in mixtures.
(§3) Membranes (molecular weight cut-off 5000) were first prepared by soaking in the dialysis buffer for a minimum of 1 hour. The dialysis membranes were then mounted into the dialysis cells.
(§4) Stock solutions of compounds in dimethylsulphoxide (DMSO) were prepared. This, and all subsequent liquid handling steps, were normally done using a Tecan liquid handling robot. Mixtures of up to five compounds were used. The concentration of each compound in a mixture was normally 1 mM. The mixtures were chosen such that each mixture contains compounds that all have at least a 5 unit difference in molecular weight from one another.
(§5) Frozen plasma (EDTA anticoagulant) was normally used for the human plasma binding experiment. The pH of the plasma was adjusted to 7.4 using 1 M HCl immediately before use.
(§6) The stock DMSO solution of compounds (7.5 μL) was then added to the dialysis cells along with plasma (750 μl). This was done in duplicate for each mixture. This gave a 1% DMSO in plasma solution with each compound at a concentration of 10 μM (if the stock solution was the standard 1 mM). The dialysis cells were then sealed, secured in a Dianorm rotator unit and equilibrated for 18 hours at 37° C. While the dialysis cells were being equilibrated, the DMSO stock solutions were used for generating optimised HPLC/MS methods for use in the final analysis of the plasma and buffer samples.
(§7) After equilibration, the cells were opened and a Tecan liquid handling robot was used to remove aliquots from the plasma and buffer sides of each of the dialysis cells. Blank plasma was then added to the buffer samples and buffer added to the plasma samples such that each sample was in a matrix of 6-fold diluted plasma. Standards were then prepared from the DMSO stock solutions and blank 6-fold diluted plasma. The concentrations of the four standards were normally 50 nM, 150 nM, 500 nM and 2500 nM.
(§8) The samples and standards were then analysed using HPLC with MS detection, which allows deconvolution of the mixtures of compounds. The HPLC method involved a forward flushing column switching technique that allows direct injection of the diluted plasma.
(§9) The chromatograms were processed using MassLynx software that automatically i 5 calculates a calibration curve for each compound in a mixture and then interpolates the concentrations of buffer and plasma samples. These concentrations still need corrections for the dilution of the plasma. The percentage bound was calculated from the MassLynx data using the following equation: […]
(§10) The factor of 1.2 in the numerator accounts for the small dilution of the aqueous samples with plasma. The factor of 6 in the denominator serves to correct for the 6-fold dilution of the plasma samples with buffer.
(§11) The % free (100-% bound) for each compound was calculated from the concentration data, and then recorded.

[2] = as above; type: in vitro ADME, human; conditions: human, plasma, pH 7.4, human plasma, equilibrium dialysis, 37° C., pH 7.4; read-out: Human plasma protein binding PPB (% free)
Procedure: as §1, §2, §3, §4, §5, §6, §7, §8, §9, §10, §11

[3] = Human hepatic intrinsic clearance (CLint) assay in human hepatocytes; type: in vitro ADME; conditions: human, human hepatocytes in suspension, pH 7.4, human hepatocytes
Source text: The hepatic metabolic component of human clearance is predicted from scaled in vitro intrinsic clearance (CLint) data from human hepatocytes (see Chem Biol Interact. 2007, 168(1), 2-15) and from the extent of human blood binding, primarily due to plasma protein binding. The well stirred model of the liver is a model for predicting blood clearance in the liver from intrinsic clearance (CLint) determined using hepatocytes. (see Drug Metab Dispos. 2005, 33(9), 1304-11) The model is usually written as:
Human Hepatic Intrinsic Clearance (CLint) Assay
For the majority of drugs, a large component of their plasma clearance is contributed by hepatic metabolism. Intrinsic clearance (CLint) is a measure of the potential of a compound to undergo metabolism and can be related to hepatic clearance in vivo from a consideration of plasma protein binding and liver blood flow. Therefore, CLint may be used as an index of the relative metabolic stability of compounds within a project and compared with other external probe substrates. Furthermore, the measurement of CLint in vitro within a research project, where hepatic metabolic clearance is known to be an issue, may be a useful means of understanding the different pharmacokinetic behaviour of the compounds in vivo.
This following description outlines a method for estimating intrinsic clearance (CLint) from human hepatocyte incubations using suspension buffer containing no HSA (human serum albumin) and maintaining physiological conditions of pH 7.4.
Hepatocytes were prepared by a two-step in situ collagenase perfusion method of a portion of the human liver, suspended in protein free buffer (see below) and stored on ice, prior to incubation.
This method is based on the procedure of Seglen (Preparation of rat liver cells. I. Effect of Ca^2+ on enzymatic dispersion of isolated, perfused liver. Exptl. Cell Res., 1972, 74, p450 and preparation of isolated rat liver cells. Methods Cell Biol., 1976, 13, p 29) which itself was developed from the one step procedure of Berry and Friend (High-yield preparation of isolated rat liver parenchymal cells. J. Cell Biol., 1969, 43, p 506).
Suspension medium: 2.34 g Na HEPES, 2.0 g HSA fraction V, 0.4 g D-fructose, DMEM (1 L powder equivalent, Sigma; w/1 g.1^−1 glucose, w/Na pyruvate, w/o NaHCO3, w/o phenol red), made up to 1 L with Milli-Q water, pH to 7.4 with 1 M HCl. (Protein free suspension buffer is made omitting the 2.0 g HSA fraction V)
The capsule of a liver which has been perfused with digestion medium was cut open and the cells gently teased out into the medium. The cells were then passed through a mesh (approximately 250 μM) into a beaker containing 50 ml suspension medium. The mesh was rinsed through into the beaker with further suspension buffer to a final volume of 100 ml. The suspension was divided between two plastic 50 mL centrifuge tubes (pre-cooled on ice) and centrifuged at 50×g for 2 min at 4° C. The supernatants were decanted and the pellets re-suspended in protein free suspension buffer to the original volume. The centrifugation step was repeated and each pellet re-suspended in approximately 10 ml protein free suspension buffer. The suspensions were combined and the volume made up to 50 mL with protein free suspension buffer.
An aliquot of cell suspension (0.2 mL) was diluted with 0.2 ml protein free suspension buffer. To the diluted cells was added 0.2 mL trypan blue solution (0.4% w/v) followed by gentle mixing. After 1 min, a pasteur pipette was used to withdraw a sample and fill an Improved Neubauer Counting Chamber by capillary action. The cells were then counted (central square only) using an inverted microscope, viable cells being able to exclude the dye and non-viable cells being stained. The percentage of viable cells in the preparation was calculated thus: […]

[4] = protein free suspension buffer, pH 7.4, 37° C., read-out: Human hepatocyte Intrinsic-clearance assay CLint
[5] = unit inferred, read-out: hepatic intrinsic clearance (Clint)

Compound	free fraction in human plasma (in words) [1]	fraction unbound at 18 h, 10 µM [2]	hepatocyte CLint at 1 µM [3, 4] [µL/min/1e6 cells]	hepatocyte CLint at 1 µM [3, 5] [µL/min/1e6 cells]	Human plasma protein binding PPB (% free) [1] [% free]
C[C@@H](Nc1cc(NS(=O)(=O)N2CCC2)nc(SCc2cccc(F)c2F)n1)[C@@H](O)CO [Example 1, N-(2-[(2,3-difluorobenzyl)thio]-6-{[(1R,2R)-2,3-dihydroxy-1-methylpropyl]amino}pyrimidin-4-yl)azetidine-1-sulfonamide]	favourable free fraction in human plasma	0.019	2.1	2.1	–
CS(=O)(=O)Nc1cc(NC(CO)CO)nc(SCc2ccccc2)n1 [Example 21]	–	–	2.3	2.3	–
Cc1cccc(CSc2nc(N[C@H](C)CO)cc(NS(C)(=O)=O)n2)c1F [Example 39]	–	0.01	5.1	–	–
Cc1cccc(CSc2nc(N[C@H](C)CO)cc(NS(=O)(=O)N3CCC3)n2)c1F [Example 40]	–	< 0.002	9	–	–
Cc1ccc(CSc2nc(N[C@H](C)CO)cc(NS(=O)(=O)N3CCC3)n2)c(F)c1C [Example 41]	–	–	12	–	0.6
Cc1ccc(CSc2nc(N[C@H](C)CO)cc(NS(=O)(=O)N3CCC3)n2)c(F)c1C [Example 42]	–	–	–	–	<0.2
